{
  "source": "patent US20200352918A1",
  "about": "“COMPOUNDS AND METHODS FOR TREATING OR PREVENTING FIBROSIS” (priority 2019, published 2020)",
  "key": {"[1]": {"tested_on": "iFA phenotype of mesenchymal-like cells on 13 kPa hydrogels", "assay": "iFA resolution screen (reversal of fibrosis) in the iFA model", "assay_type": "cell-based, human", "experimental": "Signal-to-background (S/B) ratio, standard variation and variation coefficients were calculated as the signal of DMSO treated wells divided by the signal of the hit compound (AA5) treated wells. Z′ values were used to measure assay quality which was calculated by the formula of Z′=1−3(SDTotal+SDBackground)/(MeanTotal−MeanBackground)(Inglese et al., 2006) where SDTotal and MeanTotal are the standard deviation and mean of signal for DMSO treated wells, and SDBackground and MeanBackground are the standard deviation and mean of signal for AA5 treated wells. Data normalization and curve fitting were performed as previously reported (Kariv et al., 1999, J Biomol Screen 4, 27-32.). Z′ values were obtained for the number of cellular aggregates and also calculated a phenotypic cell index as the product of cell number x area/Log(number of iFA aggregates+5). Secondary screening using α-SMA and collagen deposition was employed to further ensure efficacy and resolution of the iFA phenotype of the compounds. For the resolution screen, cells were seeded in a 96-well plate as mentioned above and compounds were added at day 13 to analyze their capacity to resolve the iFA phenotype using the same readouts as above. Dose response experiments were carried out as in the secondary screen but with at least 12 steps of a 1:1 dilution resulting in final compound concentrations from 500 μM to high nanomolar ranges.\nThe primary assay involved plating together the iPSCs and Table 1 compounds sourced from the library on day 1 on the hydrogel and examining the phenotype on day 7 of the culture as described herein. The secondary screen repeated the assay using compound sourced commercially or from additional library materials. The dose response refers to a 20 point dose course that ranges from picomolar to millimolar concentrations. […] As described herein, the cellular phenotype parameters evaluated included size, fluorescence intensity of the iFA phenotype, the shape factor of the cells/aggregates, and the cells' viability in the presence of viability dyes (Calcein AM)."}, "ocular mucosal fibrosis": {"tested_on": "ocular mucosal fibrosis", "assay": "Murine model of ocular mucosal fibrosis (OVA induced)", "assay_type": "in vivo, mice", "experimental": "Female […] mice 8-10 week of age were used for all experiments. The mice were housed in the institute's vivarium in compliance with the Animal Research Committee. Immune-mediated conjunctivitis was induced in by i.p. injection of 200 μl of immunization mix containing: 10 μg Ovalbumin (OVA) (Sigma-Aldrich), 4 mg aluminium hydroxide (Thermo Scientific), and 300 ng of pertussis toxin (Sigma-Aldrich). After 2 weeks, mice received topical OVA challenge ([…]) once a day for 7 days for the development of fibrosis. To evaluate the efficacy of AA5 in preventing fibrosis, topical OVA challenge was accompanied by addition of 1, 10, 100 or 1000 ug/mouse (n=12) AA5 administered in both eyes in a volume of 5 ul for a total of 7 days.\nTo evaluate the efficacy of AA5 in resolving fibrosis, topical OVA challenge was continued for an additional 7 days (days 14-21) after the initial OVA sensitization for the development of fibrosis. From day 21 to 28, OVA challenge was accompanied by addition of 1, 10, 100 or 1000 ug/mouse (n=12) AA5. 1% DMSO administered in both eyes in a 5 µl volume of PBS was used as control. Both eyes were scored in the same manner. For the scoring, a cumulative score of eyelid swelling (out of 3) and tearing (out of 3) was taken. At the end of the experiment at day 21 (prevention studies) or […] (resolution studies), mice were sacrificed and whole eyes were collected, fixed in 10% (v/v) formalin and processed by the standard methods for paraffin embedding. Sections (5 μm) were stained with Gomori Trichrome and H&E and imaged. Tissue sections were reviewed by 4 independent observers, including two observers who were blinded to the groups—a pathologist and another researcher. Conjunctivae were dissected from whole eyes and either processed for RNA or hydroxyproline.\nConjunctiva or LSCs were boiled in 50 μl or 400 μl of 6 M HCl, respectively at 100° C. overnight. Hydroxyproline levels were measured in the acid hydrolysis method using a kit from Biovision Inc. (Milpitas, Calif.) using the manufacturer's instructions. […]"}},
  "data": [
    {"compound": "Cc1c(C(=O)Nc2nc3ccccc3s2)sc2nc3cc4c(cc3cc12)OCO4", "note": "[AA5]", "values": [
      {"measurement": "Levels of Collagen I and α-SMA (resolution of iFA phenotype)", "setting": "[1]; AA5-resolution", "result": "reduction"},
      {"measurement": "Reversal of fibrosis", "setting": "[1]; phenotype formed over 10 days, then compounds added", "result": "Yes"},
      {"measurement": "Gomori Trichrome sections of whole eyes: conjunctiva thickness and collagen deposition", "setting": "ocular mucosal fibrosis; AA5 1000 ug", "result": "qualitatively decreased thickness of conjunctiva and collagen deposition"},
      {"measurement": "Collagen content of the conjunctivae", "setting": "ocular mucosal fibrosis; AA5-prevention and AA5-resolution at 0.1 and 1 mg doses", "result": "significant reduction"},
      {"measurement": "Clinical swelling, tearing and inflammation of eyes", "setting": "ocular mucosal fibrosis; topical, preventive and resolutive treatments, vs DMSO-treated eyes", "result": "less clinical swelling, tearing and inflammation"}
    ]}
  ]
}
